In one test the target is T1, JAK3 (Homo sapiens, UniProt P52333).
T1 construct: purchased Invitrogen
T1 sequence (P52333 1-1124): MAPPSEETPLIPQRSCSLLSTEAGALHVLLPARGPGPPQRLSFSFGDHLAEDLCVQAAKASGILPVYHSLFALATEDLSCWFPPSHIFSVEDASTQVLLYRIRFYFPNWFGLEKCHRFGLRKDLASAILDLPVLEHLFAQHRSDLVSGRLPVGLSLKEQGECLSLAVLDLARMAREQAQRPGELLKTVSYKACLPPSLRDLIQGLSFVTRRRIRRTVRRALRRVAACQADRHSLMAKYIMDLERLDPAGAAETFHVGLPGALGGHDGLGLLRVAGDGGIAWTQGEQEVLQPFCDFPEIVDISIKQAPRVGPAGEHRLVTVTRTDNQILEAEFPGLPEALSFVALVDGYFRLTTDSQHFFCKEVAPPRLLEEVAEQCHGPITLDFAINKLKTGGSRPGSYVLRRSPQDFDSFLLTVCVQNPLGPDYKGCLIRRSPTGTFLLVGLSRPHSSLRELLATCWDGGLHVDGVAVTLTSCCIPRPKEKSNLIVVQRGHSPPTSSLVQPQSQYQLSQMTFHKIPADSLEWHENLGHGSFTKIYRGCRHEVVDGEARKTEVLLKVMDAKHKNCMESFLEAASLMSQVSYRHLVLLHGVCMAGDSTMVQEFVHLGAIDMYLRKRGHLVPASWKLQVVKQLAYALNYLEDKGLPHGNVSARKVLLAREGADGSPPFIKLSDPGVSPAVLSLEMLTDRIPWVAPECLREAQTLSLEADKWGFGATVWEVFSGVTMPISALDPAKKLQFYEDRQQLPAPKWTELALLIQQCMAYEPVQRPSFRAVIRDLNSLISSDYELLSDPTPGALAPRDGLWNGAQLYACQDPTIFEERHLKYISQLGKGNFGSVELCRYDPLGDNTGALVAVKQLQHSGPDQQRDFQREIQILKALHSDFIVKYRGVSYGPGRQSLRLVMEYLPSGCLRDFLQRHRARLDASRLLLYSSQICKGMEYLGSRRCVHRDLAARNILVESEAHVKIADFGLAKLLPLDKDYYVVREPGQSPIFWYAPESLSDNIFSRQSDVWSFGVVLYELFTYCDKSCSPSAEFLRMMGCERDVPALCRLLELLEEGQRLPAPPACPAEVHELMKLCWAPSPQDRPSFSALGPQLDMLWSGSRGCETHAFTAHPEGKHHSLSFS
The experiment in a line: Assay for JAK3 Inhibition (phosphorylation of FAM-labeled substrate, Caliper LC-3000). The note with it: −log10(IC50), IC50 is the molar concentration at 50% inhibition; read-out: JAK3 pIC50 (converted). It is filed as biochemical.

For a further test, the target named is T2, JAK2 (Homo sapiens, UniProt O60674).
T2 construct: purchased Invitrogen
T2 sequence (O60674 whole entry): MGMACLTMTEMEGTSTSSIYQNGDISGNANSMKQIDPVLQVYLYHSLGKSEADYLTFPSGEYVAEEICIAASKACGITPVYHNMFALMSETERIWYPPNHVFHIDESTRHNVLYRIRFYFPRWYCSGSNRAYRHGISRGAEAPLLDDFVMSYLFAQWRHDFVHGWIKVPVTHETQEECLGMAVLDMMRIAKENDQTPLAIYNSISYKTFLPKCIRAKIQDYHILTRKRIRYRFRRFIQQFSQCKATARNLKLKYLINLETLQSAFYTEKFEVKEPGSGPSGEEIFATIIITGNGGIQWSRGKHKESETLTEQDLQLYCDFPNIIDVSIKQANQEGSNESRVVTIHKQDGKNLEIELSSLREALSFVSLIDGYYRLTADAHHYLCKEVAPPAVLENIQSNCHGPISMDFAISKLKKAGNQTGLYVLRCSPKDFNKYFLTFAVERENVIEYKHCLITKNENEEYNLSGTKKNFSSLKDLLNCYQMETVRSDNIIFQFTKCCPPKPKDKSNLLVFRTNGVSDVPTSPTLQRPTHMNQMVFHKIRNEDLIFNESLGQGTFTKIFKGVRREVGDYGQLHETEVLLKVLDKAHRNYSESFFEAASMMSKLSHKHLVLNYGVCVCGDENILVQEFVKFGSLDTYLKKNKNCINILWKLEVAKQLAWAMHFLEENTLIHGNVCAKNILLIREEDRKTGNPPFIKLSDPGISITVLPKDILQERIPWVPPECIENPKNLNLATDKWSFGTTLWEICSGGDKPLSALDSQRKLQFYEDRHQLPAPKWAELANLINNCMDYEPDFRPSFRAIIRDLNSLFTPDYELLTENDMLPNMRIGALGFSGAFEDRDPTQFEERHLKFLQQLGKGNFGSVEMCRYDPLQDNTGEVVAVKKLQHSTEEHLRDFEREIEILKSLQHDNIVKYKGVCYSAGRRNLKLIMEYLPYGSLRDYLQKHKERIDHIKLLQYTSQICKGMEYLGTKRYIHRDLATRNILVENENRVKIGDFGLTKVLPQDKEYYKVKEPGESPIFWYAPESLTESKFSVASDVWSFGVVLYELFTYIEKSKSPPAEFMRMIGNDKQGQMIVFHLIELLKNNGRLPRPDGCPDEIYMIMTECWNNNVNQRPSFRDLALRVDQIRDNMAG
The experiment in a line: Assay for JAK2 Inhibition (phosphorylation of FAM-labeled substrate, Caliper LC-3000). It counts as biochemical. As to conditions: −log10(IC50), IC50 is the molar concentration at 50% inhibition; read-out: JAK2 pIC50 (converted).

Consider `CCC1(N2Cc3c[nH]c4nccc(c34)C2=O)CCN(C(=O)CC#N)CC1` [Example 9, 3-(4-ethyl-4-(5-oxopyrrolo[4,3,2-de][2,6]naphthyridin-4(1H,3H,5H)-yl)piperidin-1-yl)-3-oxopropanenitrile], for which the values for the IC50 at JAK3 and at JAK2 were 10 nM and 20 nM, respectively.

As for `CC[C@@H](CC#N)NC(=O)[C@@H](C(C)C)N1Cc2c(Cl)cnc3[nH]cc(c23)C1=O` [Example 37, (R)-2-(6-chloro-3-oxopyrrolo[4,3,2-de][2,6]naphthyridin-4(1H,3H,5H)-yl)-N—((S)-1-cyanobutan-2-yl)-3-methylbutanamide], the figures for the IC50 at JAK3 and at JAK2 were 63.1 nM and 1580 nM, respectively.

As for `Cc1cnc2[nH]cc3c2c1CN([C@@H](C(=O)N1CC(C#N)C1)C(C)(C)C)C3=O` [Example 87, (R)-1-(3,3-dimethyl-2-(6-methyl-3-oxopyrrolo[4,3,2-de][2,6]naphthyridin-4(1H,3H,5H)-yl)butanoyl)azetidine-3-carbonitrile], the values for the IC50 on JAK3 and on JAK2 were 3.16 nM and 50.1 nM, respectively.

On to `CC[C@H](C(=O)NC1CCN(S(C)(=O)=O)CC1)N1Cc2ccnc3[nH]cc(c23)C1=O` [Example 73, (R)—N-(1-(methylsulfonyl)piperidin-4-yl)-2-(3-oxopyrrolo[4,3,2-de][2,6]naphthyridin-4(1H,3H,5H)-yl)butanamide], for which the IC50 on JAK3 was 158 nM; at JAK2, 3160 nM.

Turning to `CC(C)[C@H](C(=O)NC1CCCC1)N1Cc2ccnc3[nH]cc(c23)C1=O` [Example 22, (R)—N-cyclopentyl-3-methyl-2-(3-oxopyrrolo[4,3,2-de][2,6]naphthyridin-4(1H,3H,5H)-yl)butanamide], the IC50 is 31.6 nM at JAK3 and 631 nM at JAK2.

Consider `CC[C@H](C(=O)NC1CCCC1)N1Cc2ccnc3[nH]cc(c23)C1=O` [Example 57, (R)—N-cyclopentyl-2-(3-oxopyrrolo[4,3,2-de][2,6]naphthyridin-4(1H,3H,5H)-yl)butanamide], for which the IC50 is 79.4 nM at JAK3 and 1580 nM on JAK2.

Turning to `CC(C)[C@H](C(=O)N1CC(F)(F)C1)N1Cc2c(F)cnc3[nH]cc(c23)C1=O` [Example 76, (R)-4-(1-(3,3-difluoroazetidin-1-yl)-3-methyl-1-oxobutan-2-yl)-6-fluoro-4,5-dihydropyrrolo[4,3,2-de][2,6]naphthyridin-3(1 H)-one], the results for the IC50 at JAK3 and on JAK2 were 63.1 nM and 1000 nM, respectively.

On to `CC(C)(C)[C@H](C(=O)N1CC(C#N)C1)N1Cc2c(Cl)cnc3[nH]cc(c23)C1=O` [Example 41, (R)-1-(2-(6-chloro-3-oxopyrrolo[4,3,2-de][2,6]naphthyridin-4(1H,3H,5H)-yl)-3,3-dimethylbutanoyl)azetidine-3-carbonitrile], for which the values for the IC50 on JAK3 and at JAK2 were 3.98 nM and 50.1 nM, respectively.

Values taken from US8785429B2, “Dihydropyrrolonaphthyridinone compounds as inhibitors of JAK” (Takeda Pharmaceutical Company Limited, priority 2009, dated 2014).
